Experimental data from PubChem BioAssay (NCI).
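In this assay, cells in 96-well plates receive the compound at five concentrations for 48 hours. Endpoints are linearly interpolated between the surrounding concentrations. At the TGI there is no net growth.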

How the values were obtained:
Assay in all cases: inhibition of tumour cell growth, NCI panel, 48 h
SF-268 CNS = system: SF-268 CNS
OVCAR-4 ovarian = system: OVCAR-4 ovarian
MOLT-4 leukemia = system: MOLT-4 leukemia
SNB-19 CNS = system: SNB-19 CNS
SN12C renal = system: SN12C renal
NCI-H522 lung = system: NCI-H522 lung
NCI-H226 lung = system: NCI-H226 lung
LOX IMVI melanoma = system: LOX IMVI melanoma
RXF 393 renal = system: RXF 393 renal
RPMI-8226 leukemia = system: RPMI-8226 leukemia

Work on `C=CC(C)(C)c1cc([C@@H]2COc3cc(O)ccc3C2=O)c(O)c(O)c1OC` yielded a TGI (SF-268 CNS) of 37.4 µM, a TGI (OVCAR-4 ovarian) of 34.2 µM and a TGI (MOLT-4 leukemia) greater than 100 µM. It also gave a TGI (SNB-19 CNS) of 49 µM, a TGI (SN12C renal) of 37.6 µM and a TGI (NCI-H522 lung) of 38.1 µM. For the same compound, the TGI (NCI-H226 lung) was greater than 100 µM, the TGI (LOX IMVI melanoma) was 66.8 µM and the TGI (RXF 393 renal) was 21.1 µM.
With `CN(C)Cc1cc(C(=O)/C=C/c2cccc(Cl)c2)cc(CN(C)C)c1O` the TGI (SF-268 CNS) was 24.1 µM, the TGI (MOLT-4 leukemia) was 14.1 µM and the TGI (SNB-19 CNS) was 69.9 µM. The TGI (SN12C renal) was 11.4 µM, the TGI (RPMI-8226 leukemia) was 7.73 µM and the TGI (NCI-H522 lung) was 33 µM. The TGI (NCI-H226 lung) was 19.6 µM, the TGI (LOX IMVI melanoma) was 10.9 µM and the TGI (RXF 393 renal) was 23.6 µM.
In the case of `Cc1ccc(S(=O)(=O)c2ccc([N+](=O)[O-])o2)cc1`, the TGI (SF-268 CNS) is reported as 46.6 µM, the TGI (OVCAR-4 ovarian) is reported as greater than 22 µM and the TGI (MOLT-4 leukemia) is reported as greater than 100 µM. For the same compound, the TGI (SNB-19 CNS) was 40.4 µM, the TGI (SN12C renal) was 35.5 µM and the TGI (NCI-H522 lung) was 0.578 µM. The TGI (NCI-H226 lung) was 31.5 µM, the TGI (LOX IMVI melanoma) was 2.91 µM and the TGI (RXF 393 renal) was 3.33 µM.
For `COc1cc2c(cc1C)NC(=O)/C2=C\c1ccncc1`, the TGI (SF-268 CNS) was 56.9 µM, the TGI (OVCAR-4 ovarian) was greater than 100 µM and the TGI (SNB-19 CNS) was 21.6 µM. The TGI (SN12C renal) was 20.9 µM, the TGI (NCI-H522 lung) was 9.53 µM and the TGI (RXF 393 renal) was 13.4 µM.
Work on `COc1cc(/C=N\NC(=O)C[N+](C)(C)C)cc(OC)c1OC` yielded a TGI (SF-268 CNS) greater than 10 µM, a TGI (OVCAR-4 ovarian) greater than 10 µM and a TGI (MOLT-4 leukemia) greater than 10 µM. The TGI (SNB-19 CNS) was greater than 10 µM, the TGI (SN12C renal) was greater than 10 µM and the TGI (RPMI-8226 leukemia) was greater than 10 µM. For the same compound, the TGI (NCI-H522 lung) was greater than 10 µM and the TGI (LOX IMVI melanoma) was greater than 10 µM.
Compound `CN(C)C(=O)C(F)(F)C(c1ccc(Br)cc1)C1C(=O)N(C)C(=O)N(C)C1=O` (centres undefined) has a TGI (SF-268 CNS) greater than 100 µM, a TGI (OVCAR-4 ovarian) greater than 100 µM and a TGI (SNB-19 CNS) greater than 100 µM. For the same compound, the TGI (RPMI-8226 leukemia) was greater than 100 µM, the TGI (NCI-H226 lung) was greater than 100 µM and the TGI (LOX IMVI melanoma) was greater than 100 µM. The TGI (RXF 393 renal) was greater than 100 µM.
In the case of `Oc1ccc(Cl)cc1C1=N/C(=N\C/N=C2\N=C(c3cc(Cl)ccc3O)CC(c3ccccc3)N2)NC(c2ccccc2)C1` (centres undefined), the TGI (SF-268 CNS) is reported as greater than 100 µM, the TGI (OVCAR-4 ovarian) is reported as greater than 100 µM and the TGI (SNB-19 CNS) is reported as greater than 100 µM. The TGI (RPMI-8226 leukemia) was greater than 100 µM, the TGI (NCI-H226 lung) was greater than 100 µM and the TGI (LOX IMVI melanoma) was greater than 100 µM. For the same compound, the TGI (RXF 393 renal) was greater than 100 µM.
In the case of `CN1Cc2c(nc(-c3ccc(Br)cc3)c[n+]2[O-])N(C)C1`, the TGI (SF-268 CNS) is reported as greater than 100 µM, the TGI (OVCAR-4 ovarian) is reported as greater than 100 µM and the TGI (MOLT-4 leukemia) is reported as greater than 100 µM. For the same compound, the TGI (SNB-19 CNS) was greater than 100 µM, the TGI (SN12C renal) was greater than 100 µM and the TGI (NCI-H522 lung) was greater than 100 µM. For the same compound, the TGI (NCI-H226 lung) was greater than 100 µM and the TGI (RXF 393 renal) was greater than 100 µM.
For `CC(=O)O[C@H]1CN(S(=O)(=O)c2ccc(C)cc2)C[C@@H]1C1CCCCC1`, the TGI (SF-268 CNS) was 90.8 µM, the TGI (OVCAR-4 ovarian) was greater than 100 µM and the TGI (MOLT-4 leukemia) was 62.7 µM. It also gave a TGI (SNB-19 CNS) greater than 100 µM, a TGI (RPMI-8226 leukemia) of 79.7 µM and a TGI (NCI-H226 lung) of 48.9 µM. For the same compound, the TGI (LOX IMVI melanoma) was 49.2 µM.
`CCn1c2ccc(O)c(C(=O)OC)c2c2cc3ccccc3c(O)c21` was tested, and the TGI (SF-268 CNS) was 63.6 µM, the TGI (OVCAR-4 ovarian) was 75.1 µM and the TGI (MOLT-4 leukemia) was 73.5 µM. It also gave a TGI (SNB-19 CNS) greater than 100 µM, a TGI (SN12C renal) of 41.6 µM and a TGI (RPMI-8226 leukemia) of 33.3 µM. For the same compound, the TGI (NCI-H522 lung) was 41.2 µM, the TGI (NCI-H226 lung) was 83.8 µM and the TGI (RXF 393 renal) was greater than 100 µM.
`N#CC1(c2ccccc2)CCN(C2(c3ccccc3)CCCCC2)CC1` showed a TGI (SF-268 CNS) greater than 100 µM, a TGI (OVCAR-4 ovarian) greater than 100 µM and a TGI (MOLT-4 leukemia) greater than 100 µM. For the same compound, the TGI (SNB-19 CNS) was greater than 100 µM, the TGI (SN12C renal) was greater than 100 µM and the TGI (RPMI-8226 leukemia) was greater than 100 µM. For the same compound, the TGI (NCI-H226 lung) was greater than 100 µM, the TGI (LOX IMVI melanoma) was greater than 100 µM and the TGI (RXF 393 renal) was greater than 100 µM.
In the case of `CCN1CCCC(Nc2cc(C)nc(/N=C(/N)Nc3ccc(Cl)c(Cl)c3)n2)C1` (centres undefined), the TGI (SF-268 CNS) is reported as 5.63 µM, the TGI (OVCAR-4 ovarian) is reported as 4.97 µM and the TGI (MOLT-4 leukemia) is reported as 2.42 µM. For the same compound, the TGI (SNB-19 CNS) was 5.59 µM, the TGI (SN12C renal) was 6.64 µM and the TGI (RPMI-8226 leukemia) was 2.3 µM. The TGI (NCI-H522 lung) was 2.61 µM.
Compound `O=C1NC2CCCCC2N=C1/C(C(=O)c1ccccc1)=C(\O)c1ccccc1` (centres undefined) has a TGI (SF-268 CNS) greater than 100 µM, a TGI (MOLT-4 leukemia) of 79.3 µM and a TGI (SNB-19 CNS) greater than 100 µM. It also gave a TGI (SN12C renal) greater than 100 µM, a TGI (RPMI-8226 leukemia) greater than 100 µM and a TGI (NCI-H522 lung) of 61.9 µM. The TGI (NCI-H226 lung) was 46.8 µM, the TGI (LOX IMVI melanoma) was greater than 100 µM and the TGI (RXF 393 renal) was greater than 100 µM.
